Data taken from patent US8946478B2, “Benzamide derivative with anticancer activity and preparation method and use thereof” (Zhejiang Hisun Pharmaceutical Co., Ltd., priority 2010, dated 2015).

What was measured:
18 tumor cell strains = test: In vitro efficacy screening, summary over the tumor cell strains; type: cell-based, human; conditions: in vitro screening; for inhibitory effects on tumor cell proliferation (in words): BSI-201 as positive drug
Procedure: (§1) Human colon cancer cell strains (Colo205 and HCT-116), human breast cancer cell strains (MCF-7 and MDA-MB435), human lung cancer cell strains (A549, 95D and NCI460), human ovarian cancer cell strains (OVCAR-5, OVCAR-8, HO8910 and SKOV-3), human leukemia (HL-60 and K562), human prostate cancer (DU145 and BXPC-3), human uterine cancer (Hela), human pancreatic cancer (PANC-1), human hepatoma (HepG 2) were all obtained from ATCC. Colo205, HL-60, K562 cells were cultured in RPMI 1640 containing 2 mM/L glutamine, 10% FBS, 1.0 mM sodium pyruvate. HCT-116, MCF-7, A549, 95D, HO8910, NCI460, OVCAR-5, OVCAR-8, DU145, BXPC-3, Hela, PANC-1, HepG2 cells were cultured in DMEM containing 2 mM/L glutamine, 10% FBS. MDA-MB435 cells were cultured in L-15 containing 2 mM/L glutamine, 10% FBS. SKOV-3 cells were cultured in McCoy's containing 2 mM/L glutamine, 10% FBS. Colo205, HL-60 and K562 cells were seeded in 96-well plates, 150 μL/well and 8000 cells/well, and the 96-well plates were pre-incubated in an incubator at 37° C. with 5% CO2, 100% relative humidity for 24 hours. HCT-116, MCF-7, NCI460, OVCAR-5, OVCAR-8, Hela, HepG 2 and MDA-MB435 cells were seeded in 96-well plates, 5000 cells/well; A549, 95D, HO8910, DU145, BXPC-3, PANC-1 and SKOV-3 cells were seeded in 96-well plates, 10000 cells/well, and the 96-well plates were pre-incubated in an incubator at 37° C. with 5% CO2, 100% relative humidity for 24 hours, to allow the cells to adhere.
(§2) 50 μL of pre-cooled 50% (mass/volume) TCA was added into the time zero control wells for each cell strain to fix the cells. To other wells, 50 μL of various concentrations of compounds were added, and maintained for 48 h, wherein each drug concentration was in triplicate, and there were blank control wells (cell culture medium without cells), drug-free control wells (with no drugs but the same volume of complete medium) and positive drug BSI-201 control wells, and the plates were incubated in an incubator at 37° C. with 5% CO2, full humidity (100% relative humidity) for 48 hours
(§3) 50 μL pre-cooled 50% (mass/volume) TCA was added onto the surface of the culture medium to fix the cells, which was then placed at 4° C. for 1 h. The supernatant was removed and each well was washed with deionized water for 5 times to remove TCA, serum proteins, etc. After dried in the air, about 100 μL enough amount of 0.4% SRB (formulated with 1% acetic acid) was added into each well, and was placed at room temperature for 20 to 30 min. Liquid in each well was discarded and each well was rapidly washed with 1% acetic acid for five times, to remove unbound dye until the unbound dye was completely rinsed clean. After dried in the air until the moisture was invisible, each well was added 200 μL Tris base to dissolve, shaken on a plate oscillator for 5 min or mixed by beating up and down with a pipette tip, and then measured on the multi-function instruction (M5 Detection System, MD Group Ltd.) with a detection wavelength of 515 nm, zero adjusted with 690 nm blank control.
(§4) The dose-response curve was plotted by XL-fit to determine the GI50 value.

human leukemia HL-60 = test: In vitro SRB tumor cell growth inhibition (GI50); type: cell-based; conditions: Homo sapiens, HL-60, 48 h, HL-60 cells
Procedure: as §1, §2, §3, §4

[1] = test system: human lung cancer cell strain NCI-460; test: In vitro SRB tumor cell growth inhibition (GI50); type: cell-based; conditions: NCI-460 cells
Procedure: as §1, §2, §3, §4

[2] = test system: human colon cancer cell strain HCT-116; test: In vitro SRB tumor cell growth inhibition (GI50); type: cell-based; conditions: HCT-116 cells
Procedure: as §1, §2, §3, §4

[3] = test system: human breast cancer cell strain MCF-7; test: In vitro SRB tumor cell growth inhibition (GI50); type: cell-based; conditions: MCF-7 cells
Procedure: as §1, §2, §3, §4

[4] = test system: human ovarian cancer cell strain OVCAR-8; test: In vitro SRB tumor cell growth inhibition (GI50); type: cell-based; conditions: OVCAR-8 cells
Procedure: as §1, §2, §3, §4

[5] = test system: human breast cancer cell strain MDA-MB435; test: In vitro SRB tumor cell growth inhibition (GI50); type: cell-based; conditions: MDA-MB435 cells
Procedure: as §1, §2, §3, §4

[6] = test system: human lung cancer cell strain 95D; test: In vitro SRB tumor cell growth inhibition (GI50); type: cell-based; conditions: 95D cells, 48 h
Procedure: as §1, §2, §3, §4

[7] = test system: human prostate cancer DU145; test: In vitro SRB tumor cell growth inhibition (GI50); type: cell-based; conditions: Homo sapiens, DU-145, 48 h, DU145 cells
Procedure: as §1, §2, §3, §4

Compound	efficacy in inhibition of tumor cell proliferation, graded in words against I-1 (18 tumor cell strains)	inhibitory effects on tumor cell proliferation (in words) (18 tumor cell strains)	GI50 (human leukemia HL-60) [µM]	GI50 ([1]; Homo sapiens, NCI-460, 48 h) [µM]	GI50 ([2]; Homo sapiens, HCT-116, 48 h) [µM]	GI50 ([3]; Homo sapiens, MCF7, 48 h) [µM]	other results
C#Cc1ccc(C(=O)NC)cc1[N+](=O)[O-] [Compound I-9, N-methyl-4-ethynyl-3-nitrobenzamide]	good effects on inhibition of tumor cell proliferation	have inhibitory effects on tumor cell proliferation	9.71	11.5	22.5	6.7	–
C#Cc1ccc(C(=O)N2CCC2)cc1[N+](=O)[O-] [Compound I-25]	–	–	–	27.7	10.9	9.5	GI50 ([4]; Homo sapiens, OVCAR-8, 48 h): 14.4 µM
C#Cc1ccc(C(=O)N2CCOCC2)cc1[N+](=O)[O-] [Compound I-22, (4-ethynyl-3-nitrophenyl)(morpholin-4-yl)ketone]	–	have inhibitory effects on tumor cell proliferation	–	–	–	13.4	GI50 ([5]; Homo sapiens, MDA-MB-435, 48 h): 6.53 µM
C#Cc1ccc(C(=O)N2CCN(C)CC2)cc1[N+](=O)[O-].Cl [Compound I-29, (4-ethynyl-3-nitrophenyl)(4-methylpiperazin-1-yl)ketone hydrochloride]	slightly lower than that of I-1	have inhibitory effects on tumor cell proliferation	–	–	–	–	GI50 ([4]; 48 h, hydrochloride): 29.3 µM; GI50 ([5]; 48 h, hydrochloride): 8.44 µM; GI50 ([6]; hydrochloride): 15.8 µM; GI50 ([1]; 48 h, hydrochloride): 28.2 µM; GI50 ([2]; 48 h, hydrochloride): 14.3 µM; GI50 ([3]; 48 h, hydrochloride): 11.8 µM
C#Cc1ccc(C(=O)N(CCC)CCC)cc1[N+](=O)[O-] [Compound I-15, N,N-dipropyl-4-ethynyl-3-nitrobenzamide]	slightly lower than that of I-1	have inhibitory effects on tumor cell proliferation	–	17	12	9.92	GI50 [7]: 2.37 µM
N#Cc1ccc(C(N)=O)cc1[N+](=O)[O-] [Compound I-8, 4-cyano-3-nitrobenzamide]	good effects on inhibition of tumor cell proliferation	have inhibitory effects on tumor cell proliferation	–	–	13	–	GI50 ([5]; Homo sapiens, MDA-MB-435, 48 h): 32.2 µM
C#Cc1ccc(C(=O)NC(=O)OCCCC)cc1[N+](=O)[O-] [Compound I-5, N-butoxycarbonyl-4-ethynyl-3-nitrobenzamide]	good effects on inhibition of tumor cell proliferation	have inhibitory effects on tumor cell proliferation	–	20.1	17.9	10.1	–
C#Cc1ccc(C(=O)NCCC)cc1[N+](=O)[O-] [Compound I-18, N-propyl-4-ethynyl-3-nitrobenzamide]	good effects on inhibition of tumor cell proliferation	have inhibitory effects on tumor cell proliferation	4.86	7.09	9.45	6.29	–
C#Cc1ccc(C(=O)N(C)C)cc1[N+](=O)[O-] [Compound I-10, N,N-dimethyl-4-ethynyl-3-nitrobenzamide]	good effects on inhibition of tumor cell proliferation	have inhibitory effects on tumor cell proliferation	3.78	24.1	18.3	12.3	–
C#Cc1ccc(C(N)=O)cc1N=O [Compound I-28, 4-ethynyl-3-nitrosobenzamide]	good effects on inhibition of tumor cell proliferation	have inhibitory effects on tumor cell proliferation	–	–	–	9.78	GI50 ([4]; Homo sapiens, OVCAR-8, 48 h): 17.2 µM; GI50 ([6]; Homo sapiens, 95-D): 18.1 µM
C#Cc1ccc(C(=O)NC(=O)OCCC)cc1[N+](=O)[O-] [Compound I-4, N-propoxycarbonyl-4-ethynyl-3-nitrobenzamide]	good effects on inhibition of tumor cell proliferation	have inhibitory effects on tumor cell proliferation	–	–	–	–	GI50 ([5]; Homo sapiens, MDA-MB-435, 48 h): 12.6 µM
C#Cc1ccc(C(=O)NC(=O)c2ccccc2)cc1[N+](=O)[O-] [Compound I-13, N-benzoyl-4-ethynyl-3-nitrobenzamide]	good effects on inhibition of tumor cell proliferation	have inhibitory effects on tumor cell proliferation	–	–	–	25.3	GI50 ([5]; Homo sapiens, MDA-MB-435, 48 h): 6.24 µM
CC#Cc1ccc(C(N)=O)cc1[N+](=O)[O-] [Compound I-12, 4-(1-propynyl)-3-nitrobenzamide]	good effects on inhibition of tumor cell proliferation	have inhibitory effects on tumor cell proliferation	34.6	–	–	–	–
C#Cc1ccc(C(=O)NCCCC)cc1[N+](=O)[O-] [Compound I-19, N-butyl-4-ethynyl-3-nitrobenzamide]	good effects on inhibition of tumor cell proliferation	have inhibitory effects on tumor cell proliferation	5.15	10.1	9.01	9.59	–
C#Cc1ccc(C(=O)N(CCCC)CCCC)cc1[N+](=O)[O-] [Compound I-16, N,N-dibutyl-4-ethynyl-3-nitrobenzamide]	good effects on inhibition of tumor cell proliferation	have inhibitory effects on tumor cell proliferation	1.27	15.5	12.9	8.21	–
CNC(=O)c1ccc(C#N)c([N+](=O)[O-])c1 [Compound I-27, N-methyl-4-cyano-3-nitrobenzamide]	good effects on inhibition of tumor cell proliferation	have inhibitory effects on tumor cell proliferation	–	–	–	31.6	GI50 ([5]; Homo sapiens, MDA-MB-435, 48 h): 29.3 µM
C#Cc1ccc(C(=O)NC(C)=O)cc1[N+](=O)[O-] [Compound I-11, N-acetyl-4-ethynyl-3-nitrobenzamide]	good effects on inhibition of tumor cell proliferation	have inhibitory effects on tumor cell proliferation	2.35	13.4	12.1	10.7	–
